Assay results reported in patent US8552064B2, “Suramin and derivatives thereof as topical microbicide and contraceptive” (Eastern Virginia Medical School, priority 2005, dated 2013).
In brackets after ≈: the same amount, converted by molar mass. Where two headings read alike, the source gives them in different places.

Legend:
[1] = test system: sperm penetration in cervical mucus; assay: Modified One End Test (MOET), sperm penetration in bovine cervical mucus; format: cell-based
From the text: Bovine cervical mucus was obtained from Humagen (Charlottesville, Va.) in the form of prepackaged flat capillary tubes (Penetrak®), kept frozen and thawed right prior to the experiment. The Modified One End Test (MOET) [(described in Doncel G. F., in “Barrier Contraceptives”, Wiley-Liss, Mauck C. K. et al. eds., pp. 147-162 (1994)] was used to determine the effect of compounds, such as suramin sodium described herein, on sperm penetration in cervical mucus. Each of the test compositions containing the compound to be tested were diluted in a saline solution, i.e., at 9 grams of NaCl per liter of water. Tubes of cervical mucus were broken open. The open end was placed in a container containing the test compound in saline. The test compound was allowed to diffuse for 30 minutes through the tube. A semen sample, obtained from normal healthy donors, was then diluted with a buffer solution to 60 million motile sperm per milliliter and mixed with the test compound sample (i.e., suramin sodium). The tube containing the test compound sample was then re-inserted into the container containing the mixed solution and stored in an incubator at 37° C. in an atmosphere of 5 percent carbon dioxide in air for 60 minutes. The container and tube were then removed from the incubator and the tube was visually analyzed under a microscope for the migration of motile vanguard sperm through the tube. The results are expressed as percentage of migration as compared to control samples. In the control samples, the tubes were incubated with saline containing no compound. […]

sperm = assay: Sperm viability, membrane integrity (HOST); format: cell-based
Method: Viability of sperm was assessed by a sperm membrane integrity evaluation as described in Jeyendran R. S. et al., J. Reprod. Fertil., 70: 219-28 (1984). Aliquots of sperm samples were incubated with suramin or N-9 test compounds. The reaction was terminated by the addition of 1.5 mL Ham's F10. Sperm were centrifuged and the pellet was resuspended in 200 μL of medium. Sperm viability was assessed by placing 100 μL of the sperm suspension in 900 μL of hypo-osmotic swelling test (HOST) medium for 30 min. Coiled sperm tails are a reflection of intact sperm membrane permeability and indicate viable sperm. A minimum of 200 cells were microscopically assessed from each sample.

[2] = target: sheep testicular hyaluronidase (Ovis aries, UniProt A0ACI6NV18); assay: Hyaluronic acid hydrolysis assay; format: biochemical
From the text: A hyaluronic acid hydrolysis assay was used to assess the hyaluronidase inhibition properties of suramin sodium. Hyaluronidase is a critical sperm enzyme involved in cumulus penetration. Inhibition of this enzyme renders sperm incapable of transversing the egg vestments, thus impeding sperm-oocyte interaction and, ultimately, fertilization.
Hyaluronidase activity was quantitatively determined by measuring the extent of hyaluronic acid hydrolysis (i.e., the concentration of N-acetylglucosamine-reactive material formed from enzyme activity). Reaction mixtures containing the following were prepared: test compound (variable concentrations of suramin sodium); 0.1 M sodium acetate; 0.15 M sodium chloride; pH adjusted to 5.5; 7.2 units sheep testicular hyaluronidase (Sigma, Type III; H-2251) contained in an acetate buffer; 0.3 mg/ml hyaluronic acid (Sigma, from bovine vitreous humor; H-7630). The enzyme was preincubated with the test agent (1 mg/ml for screening purposes) for 10 minutes before starting the reaction by the addition of hyaluronic acid. The enzyme reaction was determined using the method of Aronson and Davidson (J. Biol. Chem. 241 437-40, 1967). […] The reaction product is determined calorimetrically with […] (Reissig et al., J. Biol. Chem. 217 959-966, […]) by measuring the absorbance at 545 nm.

[3] = test system: HIV-1-infected SupT1 cells (strain IIIB); assay: Cell-to-cell transmission (CTC) assay; format: cell-based; settings: for IC50: Human immunodeficiency virus 1, IIIB, SUP-T1
Method: HIV-1-infected SupT1 cells (strain IIIB), killed by prior exposure to mitomycin C (200 μg/mL) for 1 hour at 37° C., were incubated with each agent and P4-R5 (MAGI) cells for 2 hours at 37° C. Following the incubation period, cells were washed and provided with new media. Successful transmission and subsequent replication events were quantitated using Galacto-Star assay 48 hr post-infection. Infected cells were expressed as a percent of cells infected after mock exposure. In each assay, triplicate wells were tested for each concentration. The results of this assay are provided herein.

[4] = test system: Chlamydia trachomatis (serotype E/UW-5/CX); assay: Chlamydia multiplication inhibition; format: cell-based
Method: Chlamydia multiplication inhibition was performed according to Cooper M. D. et al., J. Gen. Microbiol., 136: 1109-1115 (1990). Prior to experimentation, cryo-preserved Chlamydia trachomatis (serotype E/UW-5/CX) were quickly thawed (37° C.) and suspended by mild sonication. Serial 1:10 dilutions of the bacterial suspension were made, ranging from 10^−1 to 10^−7.
HeLa monolayers (on coverslips) were inoculated with 100 μl of the different dilutions of chlamydia (elementary bodies), in the presence or absence of test agent. The suramin compound was tested at 0.1, 1.0, 10, 100 and 1000 μg/ml. After 1 hour, the monolayers were washed to remove free chlamydia and test agent, and they were incubated for 48 hours.
Medium was removed, and the HeLa monolayers were fixed in methanol, washed, and treated with Kallsted Chlamydia Culture Confirmation fluorescein-conjugated Monoclonal Antibody. Reaction of labeled antibody with the cells was carried out for 30 minutes at room temperature (i.e., 25° C.) (no light) in a humidified chamber. The cells were washed with water; a drop of mounting medium is placed on a glass slide, and the coverslip was applied. Inclusions due to chlamydial infection were visualized with a fluorescent microscope as green fluorescence. Data was reported as the number of inclusion forming units per ml of undiluted chlamydial titer, and were adjusted to control values of 2.6×10^7 IFU/ml for control cultures (no test agent) in each experiment. […] After logarithmic transformation of all data, dose-response curves were created with curve-fitting (TableCurve 2D, version 3.02; Jandel Scientific) software.

Chain of sheep testicular hyaluronidase (A0ACI6NV18 entry or part of it): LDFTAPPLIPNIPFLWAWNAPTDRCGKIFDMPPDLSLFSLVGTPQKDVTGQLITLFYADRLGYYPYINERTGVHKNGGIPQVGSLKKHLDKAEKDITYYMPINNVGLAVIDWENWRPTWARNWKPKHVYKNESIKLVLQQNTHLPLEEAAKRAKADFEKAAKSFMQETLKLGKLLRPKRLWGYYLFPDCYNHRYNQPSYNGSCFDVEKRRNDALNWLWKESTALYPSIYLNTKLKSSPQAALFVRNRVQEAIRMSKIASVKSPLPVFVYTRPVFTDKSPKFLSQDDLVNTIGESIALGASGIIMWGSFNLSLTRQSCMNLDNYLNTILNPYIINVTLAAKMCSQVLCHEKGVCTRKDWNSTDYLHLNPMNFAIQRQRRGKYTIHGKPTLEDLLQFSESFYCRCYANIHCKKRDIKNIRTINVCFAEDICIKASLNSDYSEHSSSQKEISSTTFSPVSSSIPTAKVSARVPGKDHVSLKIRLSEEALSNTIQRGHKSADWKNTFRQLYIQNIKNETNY

Structure (SMILES): Cc1ccc(C(=O)Nc2ccc(S(=O)(=O)O)c3cc(S(=O)(=O)O)cc(S(=O)(=O)O)c23)cc1NC(=O)c1cccc(NC(=O)Nc2cccc(C(=O)Nc3cc(C(=O)Nc4ccc(S(=O)(=O)O)c5cc(S(=O)(=O)O)cc(S(=O)(=O)O)c45)ccc3C)c2)c1 [Suramin, 8,8′-(carbonylbis(imino-3,1-phenylenecarbonylimino(4-methyl-3,1-phenylene)carbonylimino))bis-1,3,5-naphthalene trisulfonic acid]
- MOET % CTL ([1]; 6.25 mg/ml): 96.1 ± 0.9 % CTL
- MOET % CTL ([1]; 12.5 mg/ml): 94.9 ± 2.2 % CTL
- sperm impediment in MOET ([1]; 25 mg/mL or below): No significant sperm impediment
- MOET % CTL ([1]; 25 mg/ml): 95.9 ± 1.4 % CTL
- inhibition of sperm penetration in MOET ([1]; 50 mg/mL (5%)): only minor inhibition of sperm penetration
- MOET % CTL ([1]; 50 mg/ml): 72.3 ± 7.1 % CTL
- degree of inhibition of sperm penetration ([1]; KY, suramin sodium in KY and suramin sodium alone at the same concentration): ~4%
- sperm viability vs solvent-treated controls (sperm; 10-0.001 mg/mL): No significant differences
- Potency, Viability (HOST) (sperm; time- and dose-dependent exp.): None
- Potency, Hyaluronidase (Hyaluronic Acid Hydrolysis) [2]: High
- Potency, HIV-1 CTC [3]: High
- IC50 ([3]; CD4-dependent cell-to-cell transmission, API, read-out: IC50 CTC assay): 93.5 mg/L (≈ 72.1 µM)
- IC50 ([3]; not API (Table 8: 2% suramin in Replens), read-out: IC50 CTC, second value beside API): 9.6 mg/L (≈ 7.4 µM)
- Potency, Chlamydia (CT) Multiplication [4]: High
- inhibition of CT multiplication ([4]; 2 mg/mL): inhibition was essentially complete
- titer ([4]; 2 mg/mL, control titer 1×10^−5): 0.08×10^−5
- inhibition at 100 µg/mL ([4]; Chlamydia trachomatis, read-out: inhibition of CT multiplication): 75%
- inhibition at 2000 µg/mL ([4]; Chlamydia trachomatis, 2 mg/mL, read-out: inhibition of CT multiplication): 100%
- IC50 ([4]; Chlamydia trachomatis, read-out: IC50 Chlamydia (CT) Multiplication): 28 mg/L (≈ 21.6 µM)
